As a reminder, the ΔTm is the shift of the melting midpoint relative to a reference.

Test [1] concerns dsoligo (12-ss(-)/12-ss(+)) (DNA, duplex) GCGAAACCTCCC/GGGAGGTTTCGC
Nature of the test: UV melting at 260 nm. To be noted: K+ (50 mM potassium phosphate); 50 mM potassium phosphate pH 7.0; 1.5 µM DNA, 3.0 µM compound.

For test [2] the test system is unchanged. Nature of the test: pulldown on streptavidin magnetic beads, gel electrophoresis. The conditions noted are these: K+ (50 mM potassium phosphate); 5 µM compound, 5 µM DNA, pH 7.0, room temperature.
In test [3] the test system is VEGF (DNA, G4) CGGGGCGGGCCTTGGGCGGGGT
As to the kind of experiment: CD melting at 265 nm. The conditions noted are these: K+ (50 mM potassium phosphate); 50 mM potassium phosphate pH 7.0; 1.5 µM DNA, 3.0 µM compound; printed ≧.

Test [4] deals with TA-core (DNA, G4) TAGGGTTAGGGTTAGGGTTAGGG
As to the kind of experiment: ITC. The conditions noted are these: K+ (50 mM potassium phosphate); 50 mM KH2PO4-K2HPO4 pH 7.0, 25 °C.

Test [5] concerns c-kit (DNA, G4) AGGGAGGGCGCTGGGAGGAGGG
As to the kind of experiment: ITC. The conditions noted are these: K+ (50 mM potassium phosphate); 50 mM KH2PO4-K2HPO4 pH 7.0, 25 °C.

Test [6] deals with c-myc120 (DNA, G4) GAGGTATTTCGGGAGGTTTCGCCCCACGCCCTCTGCTTTGGGAACCCGGGAGGGGCGCTTATGGTGAGGGTGGGGAGGGTGGGGAAGGGGGAGGAGAGCGGTATTCGTGGTGTTCGGAGT
Nature of the test: pulldown on streptavidin magnetic beads, qPCR. The conditions noted are these: K+ (50 mM potassium phosphate); 50 mM potassium phosphate pH 7.0, room temperature; immobilised compound; more than 50% recovery. On the technique in general: In qPCR the cycle at which signal appears reflects the starting amount.

For test [7], the system named is TA-core (DNA, G4) TAGGGTTAGGGTTAGGGTTAGGG
Nature of the test: CD melting at 265 nm. To be noted: K+ (50 mM potassium phosphate); 50 mM potassium phosphate pH 7.0; 1.5 µM DNA, 3.0 µM compound.

Test [8] has as its system VEGF (DNA, G4) CGGGGCGGGCCTTGGGCGGGGT
Nature of the test: ITC. The conditions noted are these: K+ (50 mM potassium phosphate); 50 mM KH2PO4-K2HPO4 pH 7.0, 25 °C.

Test [9] concerns c-myc-mut95 (DNA, single strand) GAGGTATTTCGGGAGGTTTCGCCACCTTCTTCACTCTCTTCACTCTCTTCATAAGCGCCCCTCCCGGGTTCCCCGGTATTCGTGGTGTTCGGAGT
As to the kind of experiment: pulldown on streptavidin magnetic beads, qPCR. To be noted: K+ (50 mM potassium phosphate); 50 mM potassium phosphate pH 7.0, room temperature; immobilised compound; 2 fmol DNA.

Test [10] concerns c-myc (DNA, G4) TGAGGGTGGGTAGGGTGGGTAA
Nature of the test: ITC. The conditions noted are these: K+ (50 mM potassium phosphate); 50 mM KH2PO4-K2HPO4 pH 7.0, 25 °C; abstract misprints exponent as 10^-6.

The test system is the same in test [11]. As to the kind of experiment: CD melting at 265 nm. To be noted: K+ (50 mM potassium phosphate); 50 mM potassium phosphate pH 7.0; 1.5 µM DNA, 3.0 µM compound; printed ≧; printed Tms differ by 6.6.
Test [12] has the same test system. Nature of the test: pulldown on streptavidin magnetic beads, gel electrophoresis. The conditions noted are these: K+ (50 mM potassium phosphate); 5 µM compound, 5 µM DNA, pH 7.0, room temperature.
The test system is the same in test [13]. As to the kind of experiment: absorption titration (383 nm, Stootman fit). The conditions noted are these: K+ (50 mM potassium phosphate); 50 mM KH2PO4-K2HPO4 pH 7.0; 8 µM compound.

On to `CN1CCCNC(=O)CC[C@H](NC(=O)CCOCCOCCOCCOCCNC(=O)CCCC[C@@H]2SC[C@@H]3NC(=O)N[C@@H]32)C(=O)NCCCN(C)CCCN2C(=O)c3ccc4c5c(ccc(c35)C2=O)C(=O)N(CCC1)C4=O`, for which the ΔTm in test [1] is 0.1 °C; in test [3], over 7.0 °C; in [7], 4.8 °C; in test [11], over 5.4 °C. Further, the binding entry was “no” in [2], “yes” in [6], “no” in test [9] and “yes” in [12]. Also, the K in test [4] is 2.1e+06 M⁻¹; in test [5] it was 200000 M⁻¹; in test [8], 820000 M⁻¹; in test [10], 3.9e+06 M⁻¹; in [13] it was 8.9e+06 M⁻¹.

Source of the values: paper PMC11035424 (2024).
